Converted amounts (≈) assume the structure as drawn.
Experiments:
Format in all cases: functional, organism-based
[1] = system: Cercospora beticola; assay: Antifungal activity against Cercospora beticola isolate 11-1015-1 expressing cytb with alanine at codon 143 assessed as reduction in spore germination
[2] = system: Cercospora beticola; assay: Antifungal activity against Cercospora beticola isolate 11-1044-2 expressing cytb with alanine at codon 143 assessed as reduction in spore germination
[3] = system: Cercospora beticola; assay: Antifungal activity against Cercospora beticola isolate 11-1028-1 expressing cytb with alanine at codon 143 assessed as reduction in spore germination
[4] = system: Cercospora beticola; assay: Antifungal activity against Cercospora beticola isolate 11-1042-2 expressing cytb with alanine at codon 143 assessed as reduction in spore germination
[5] = system: Cercospora beticola; assay: Antifungal activity against Cercospora beticola isolate 11-1046-2 expressing cytb with alanine at codon 143 assessed as reduction in spore germination
[6] = system: Cercospora beticola; assay: Antifungal activity against Cercospora beticola isolate 11-1022-2 expressing cytb with alanine at codon 143 assessed as reduction in spore germination
[7] = system: Cercospora beticola; assay: Antifungal activity against Cercospora beticola isolate 11-1038-2 expressing cytb with alanine at codon 143 assessed as reduction in spore germination
[8] = system: Cercospora beticola; assay: Antifungal activity against Cercospora beticola isolate 98-19-M expressing cytb with glycine at codon 143 assessed as reduction in spore germination
[9] = system: Cercospora beticola; assay: Antifungal activity against Cercospora beticola isolate 98-10-M expressing cytb with glycine at codon 143 assessed as reduction in spore germination
[10] = system: Cercospora beticola; assay: Antifungal activity against Cercospora beticola isolate 11-1036-2 expressing cytb with alanine at codon 143 assessed as reduction in spore germination
[11] = system: Cercospora beticola; assay: Antifungal activity against Cercospora beticola isolate 11-1040-2 expressing cytb with alanine at codon 143 assessed as reduction in spore germination
[12] = system: Cercospora beticola; assay: Antifungal activity against Cercospora beticola isolate 11-1009-1 expressing cytb with alanine at codon 143 assessed as reduction in spore germination
[13] = system: Cercospora beticola; assay: Antifungal activity against Cercospora beticola isolate 11-1046-1 expressing cytb with alanine at codon 143 assessed as reduction in spore germination
[14] = system: Cercospora beticola; assay: Antifungal activity against Cercospora beticola isolate 11-1008-1 expressing cytb with alanine at codon 143 assessed as reduction in spore germination
[15] = system: Cercospora beticola; assay: Antifungal activity against Cercospora beticola isolate 98-13-M expressing cytb with glycine at codon 143 assessed as reduction in spore germination
[16] = system: Cercospora beticola; assay: Antifungal activity against Cercospora beticola isolate 11-1015-2 expressing cytb with alanine at codon 143 assessed as reduction in spore germination
[17] = system: Cercospora beticola; assay: Antifungal activity against Cercospora beticola isolate 11-1022-1 expressing cytb with alanine at codon 143 assessed as reduction in spore germination
[18] = system: Cercospora beticola; assay: Antifungal activity against Cercospora beticola isolate 11-1026-1 expressing cytb with alanine at codon 143 assessed as reduction in spore germination
[19] = system: Cercospora beticola; assay: Antifungal activity against Cercospora beticola isolate 11-1041-1 expressing cytb with alanine at codon 143 assessed as reduction in spore germination
[20] = system: Cercospora beticola; assay: Antifungal activity against Cercospora beticola isolate 99-521-29-M expressing cytb with glycine at codon 143 assessed as reduction in spore germination
[21] = system: Cercospora beticola; assay: Antifungal activity against Cercospora beticola isolate 11-1037-2 expressing cytb with alanine at codon 143 assessed as reduction in spore germination
[22] = system: Cercospora beticola; assay: Antifungal activity against Cercospora beticola isolate 11-1005-2 expressing cytb with alanine at codon 143 assessed as reduction in spore germination
[23] = system: Cercospora beticola; assay: Antifungal activity against Cercospora beticola isolate 11-1035-2 expressing cytb with alanine at codon 143 assessed as reduction in spore germination
[24] = system: Cercospora beticola; assay: Antifungal activity against Cercospora beticola isolate 11-1040-1 expressing cytb with alanine at codon 143 assessed as reduction in spore germination
[25] = system: Cercospora beticola; assay: Antifungal activity against Cercospora beticola isolate 11-1039-1 expressing cytb with alanine at codon 143 assessed as reduction in spore germination
[26] = system: Cercospora beticola; assay: Antifungal activity against Cercospora beticola isolate 98-101-5-M expressing cytb with glycine at codon 143 assessed as reduction in spore germination
[27] = system: Cercospora beticola; assay: Antifungal activity against Cercospora beticola isolate 11-1027-1 expressing cytb with alanine at codon 143 assessed as reduction in spore germination
[28] = system: Cercospora beticola; assay: Antifungal activity against Cercospora beticola isolate 11-1005-1 expressing cytb with alanine at codon 143 assessed as reduction in spore germination
[29] = system: Cercospora beticola; assay: Antifungal activity against Cercospora beticola isolate 11-1007-2 expressing cytb with alanine at codon 143 assessed as reduction in spore germination
[30] = system: Cercospora beticola; assay: Antifungal activity against Cercospora beticola isolate 11-1026-2 expressing cytb with alanine at codon 143 assessed as reduction in spore germination
[31] = system: Cercospora beticola; assay: Antifungal activity against Cercospora beticola isolate 99-233-3-M expressing cytb with glycine at codon 143 assessed as reduction in spore germination
[32] = system: Cercospora beticola; assay: Antifungal activity against Cercospora beticola isolate 11-1014-1 expressing cytb with alanine at codon 143 assessed as reduction in spore germination
[33] = system: Cercospora beticola; assay: Antifungal activity against Cercospora beticola isolate 11-1038-1 expressing cytb with alanine at codon 143 assessed as reduction in spore germination
[34] = system: Cercospora beticola; assay: Antifungal activity against Cercospora beticola isolate 11-1016-1 expressing cytb with alanine at codon 143 assessed as reduction in spore germination
[35] = system: Cercospora beticola; assay: Antifungal activity against Cercospora beticola isolate 11-1006-2 expressing cytb with alanine at codon 143 assessed as reduction in spore germination
[36] = system: Cercospora beticola; assay: Antifungal activity against Cercospora beticola isolate 98-150-M expressing cytb with glycine at codon 143 assessed as reduction in spore germination
[37] = system: Cercospora beticola; assay: Antifungal activity against Cercospora beticola isolate 11-1043-2 expressing cytb with alanine at codon 143 assessed as reduction in spore germination
[38] = system: Cercospora beticola; assay: Antifungal activity against Cercospora beticola isolate 98-12-M expressing cytb with glycine at codon 143 assessed as reduction in spore germination
[39] = system: Cercospora beticola; assay: Antifungal activity against Cercospora beticola isolate 11-1007-1 expressing cytb with alanine at codon 143 assessed as reduction in spore germination
[40] = system: Cercospora beticola; assay: Antifungal activity against Cercospora beticola isolate 11-1044-1 expressing cytb with alanine at codon 143 assessed as reduction in spore germination
[41] = system: Cercospora beticola; assay: Antifungal activity against Cercospora beticola isolate 11-1045-2 expressing cytb with alanine at codon 143 assessed as reduction in spore germination
[42] = system: Cercospora beticola; assay: Antifungal activity against Cercospora beticola isolate 11-1037-1 expressing cytb with alanine at codon 143 assessed as reduction in spore germination
[43] = system: Cercospora beticola; assay: Antifungal activity against Cercospora beticola isolate 11-1028-2 expressing cytb with alanine at codon 143 assessed as reduction in spore germination
[44] = system: Cercospora beticola; assay: Antifungal activity against Cercospora beticola isolate 11-1003-2 expressing cytb with alanine at codon 143 assessed as reduction in spore germination
[45] = system: Cercospora beticola; assay: Antifungal activity against Cercospora beticola isolate 11-1004-1 expressing cytb with alanine at codon 143 assessed as reduction in spore germination
[46] = system: Cercospora beticola; assay: Antifungal activity against Cercospora beticola isolate 98-9-M expressing cytb with glycine at codon 143 assessed as reduction in spore germination
[47] = system: Cercospora beticola; assay: Antifungal activity against Cercospora beticola isolate 11-1042-1 expressing cytb with alanine at codon 143 assessed as reduction in spore germination
[48] = system: Cercospora beticola; assay: Antifungal activity against Cercospora beticola isolate 11-1036-1 expressing cytb with alanine at codon 143 assessed as reduction in spore germination
[49] = system: Cercospora beticola; assay: Antifungal activity against Cercospora beticola isolate 11-1027-2 expressing cytb with alanine at codon 143 assessed as reduction in spore germination

CO/N=C(\C(=O)OC)c1ccccc1CO/N=C(\C)c1cccc(C(F)(F)F)c1
EC50 [1]: 7.3 µg/mL (≈ 17.9 µM) | EC50 [2]: 8.56 µg/mL (≈ 21 µM) | EC50 [3]: 7.62 µg/mL (≈ 18.7 µM) | EC50 [4]: 2.36 µg/mL (≈ 5.79 µM) | EC50 [5]: 8.37 µg/mL (≈ 20.5 µM) | EC50 [6]: 4.98 µg/mL (≈ 12.2 µM) | EC50 [7]: 35.5 µg/mL (≈ 86.9 µM) | EC50 [8]: 0.005 µg/mL (≈ 0.0122 µM) | EC50 [9]: 0.001 µg/mL (≈ 0.00245 µM) | EC50 [10]: 8.15 µg/mL (≈ 20 µM) | EC50 [11]: 13.7 µg/mL (≈ 33.4 µM) | EC50 [12]: 39.4 µg/mL (≈ 96.4 µM) | EC50 [13]: 5.48 µg/mL (≈ 13.4 µM) | EC50 [14]: 7.49 µg/mL (≈ 18.4 µM) | EC50 [15]: 0.006 µg/mL (≈ 0.0147 µM) | EC50 [16]: 7.79 µg/mL (≈ 19.1 µM) | EC50 [17]: 6.86 µg/mL (≈ 16.8 µM) | EC50 [18]: 25.9 µg/mL (≈ 63.5 µM) | EC50 [19]: 6.09 µg/mL (≈ 14.9 µM) | EC50 [20]: 0.005 µg/mL (≈ 0.0122 µM) | EC50 [21]: 4.24 µg/mL (≈ 10.4 µM) | EC50 [22]: 3.25 µg/mL (≈ 7.96 µM) | EC50 [23]: 6.36 µg/mL (≈ 15.6 µM) | EC50 [24]: 7.64 µg/mL (≈ 18.7 µM) | EC50 [25]: 6.79 µg/mL (≈ 16.6 µM) | EC50 [26]: 0.006 µg/mL (≈ 0.0147 µM) | EC50 [27]: 29.7 µg/mL (≈ 72.8 µM) | EC50 [28]: 9.54 µg/mL (≈ 23.4 µM) | EC50 [29]: 6.84 µg/mL (≈ 16.8 µM) | EC50 [30]: 8.55 µg/mL (≈ 20.9 µM) | EC50 [31]: 0.004 µg/mL (≈ 0.00979 µM) | EC50 [32]: 4.54 µg/mL (≈ 11.1 µM) | EC50 [33]: 19.9 µg/mL (≈ 48.6 µM) | EC50 [34]: 5.89 µg/mL (≈ 14.4 µM) | EC50 [35]: 8.46 µg/mL (≈ 20.7 µM) | EC50 [36]: 0.004 µg/mL (≈ 0.00979 µM) | EC50 [37]: 3.27 µg/mL (≈ 8 µM) | EC50 [38]: 0.005 µg/mL (≈ 0.0122 µM) | EC50 [39]: 7.65 µg/mL (≈ 18.7 µM) | EC50 [40]: 13.8 µg/mL (≈ 33.9 µM) | EC50 [41]: 7.02 µg/mL (≈ 17.2 µM) | EC50 [42]: 6.78 µg/mL (≈ 16.6 µM) | EC50 [43]: 4.96 µg/mL (≈ 12.2 µM) | EC50 [44]: 1 µg/mL (≈ 2.45 µM) | EC50 [45]: 6.66 µg/mL (≈ 16.3 µM) | EC50 [46]: 0.004 µg/mL (≈ 0.00979 µM) | EC50 [47]: 8.83 µg/mL (≈ 21.6 µM) | EC50 [48]: 3.62 µg/mL (≈ 8.88 µM) | EC50 [49]: 6.06 µg/mL (≈ 14.8 µM)
